In PubChem BioAssay (NCI):
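Assay format: 96-well plates, 48-hour exposure. TGI marks complete inhibition of growth.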

Tests used:
Assay in all cases: NCI anticancer screen, dose series, 48 h
SK-OV-3 ovarian = test system: SK-OV-3 ovarian
HCC-2998 colon = test system: HCC-2998 colon
786-0 renal = test system: 786-0 renal
OVCAR-4 ovarian = test system: OVCAR-4 ovarian
SK-MEL-2 melanoma = test system: SK-MEL-2 melanoma
UACC-257 melanoma = test system: UACC-257 melanoma
SR leukemia = test system: SR leukemia
NCI/ADR-RES ovarian = test system: NCI/ADR-RES ovarian
HCT-116 colon = test system: HCT-116 colon
T-47D breast = test system: T-47D breast
OVCAR-8 ovarian = test system: OVCAR-8 ovarian
SN12C renal = test system: SN12C renal
NCI-H522 lung = test system: NCI-H522 lung
SF-295 CNS = test system: SF-295 CNS
KM12 colon = test system: KM12 colon
SK-MEL-28 melanoma = test system: SK-MEL-28 melanoma
MALME-3M melanoma = test system: MALME-3M melanoma
HOP-62 NSCLC = test system: HOP-62 NSCLC
SNB-19 CNS = test system: SNB-19 CNS
SNB-75 CNS = test system: SNB-75 CNS
OVCAR-5 ovarian = test system: OVCAR-5 ovarian
UO-31 renal = test system: UO-31 renal
DU-145 prostate = test system: DU-145 prostate
RXF 393 renal = test system: RXF 393 renal
K-562 leukemia = test system: K-562 leukemia
MOLT-4 leukemia = test system: MOLT-4 leukemia
MDA-MB-435 = test system: MDA-MB-435
OVCAR-3 ovarian = test system: OVCAR-3 ovarian
CAKI-1 renal = test system: CAKI-1 renal
LOX IMVI melanoma = test system: LOX IMVI melanoma
SF-539 CNS = test system: SF-539 CNS
SF-268 CNS = test system: SF-268 CNS
EKVX NSCLC = test system: EKVX NSCLC
TK-10 renal = test system: TK-10 renal
BT-549 breast = test system: BT-549 breast
A549 NSCLC = test system: A549 NSCLC
HT29 colon = test system: HT29 colon
M14 melanoma = test system: M14 melanoma
U251 CNS = test system: U251 CNS
SW-620 colon = test system: SW-620 colon
UACC-62 melanoma = test system: UACC-62 melanoma
MDA-MB-231 breast = test system: MDA-MB-231 breast
MCF7 breast = test system: MCF7 breast
NCI-H23 lung = test system: NCI-H23 lung

Question: `COc1cc([C@@H]2c3cc4c(cc3[C@@H](Nc3ccc(Cl)cc3C(=O)c3ccccc3Cl)[C@H]3COC(=O)[C@H]23)OCO4)cc(OC)c1OC` was tested. Which TGI (SK-OV-3 ovarian) did it give?
Answer: > 100 µM

Question: And the TGI (HCC-2998 colon)?
Answer: > 100 µM

Question: And the TGI (786-0 renal)?
Answer: > 100 µM

Question: And the TGI (OVCAR-4 ovarian)?
Answer: > 100 µM

Question: What about the TGI (SK-MEL-2 melanoma) of the same compound?
Answer: > 100 µM

Question: What about the TGI (UACC-257 melanoma) of the same compound?
Answer: > 100 µM

Question: What about the TGI (SR leukemia) of the same compound?
Answer: 0.425 µM

Question: What about the TGI (NCI/ADR-RES ovarian) of the same compound?
Answer: > 37.7 µM

Question: What about the TGI (HCT-116 colon) of the same compound?
Answer: > 100 µM

Question: What about the TGI (T-47D breast) of the same compound?
Answer: > 100 µM

Question: And the TGI (OVCAR-8 ovarian)?
Answer: > 36.2 µM

Question: And the TGI (SN12C renal)?
Answer: > 100 µM

Question: And the TGI (NCI-H522 lung)?
Answer: 0.237 µM

Question: And the TGI (SF-295 CNS)?
Answer: > 37.4 µM

Question: And the TGI (KM12 colon)?
Answer: 0.289 µM

Question: What about the TGI (SK-MEL-28 melanoma) of the same compound?
Answer: 34 µM

Question: What about the TGI (MALME-3M melanoma) of the same compound?
Answer: > 100 µM

Question: What about the TGI (HOP-62 NSCLC) of the same compound?
Answer: 16.9 µM

Question: What about the TGI (SNB-19 CNS) of the same compound?
Answer: 76.1 µM

Question: What about the TGI (SNB-75 CNS) of the same compound?
Answer: > 100 µM

Question: And the TGI (OVCAR-5 ovarian)?
Answer: > 100 µM

Question: And the TGI (UO-31 renal)?
Answer: > 100 µM

Question: And the TGI (DU-145 prostate)?
Answer: > 100 µM

Question: And the TGI (RXF 393 renal)?
Answer: > 75.3 µM

Question: What about the TGI (K-562 leukemia) of the same compound?
Answer: > 100 µM

Question: And the TGI (MOLT-4 leukemia)?
Answer: > 100 µM

Question: What about the TGI (MDA-MB-435) of the same compound?
Answer: 0.397 µM

Question: What about the TGI (OVCAR-3 ovarian) of the same compound?
Answer: 6.4 µM

Question: What about the TGI (CAKI-1 renal) of the same compound?
Answer: > 43.3 µM

Question: And the TGI (LOX IMVI melanoma)?
Answer: > 100 µM

Question: What about the TGI (SF-539 CNS) of the same compound?
Answer: 0.198 µM

Question: What about the TGI (SF-268 CNS) of the same compound?
Answer: > 100 µM

Question: What about the TGI (EKVX NSCLC) of the same compound?
Answer: > 100 µM

Question: What about the TGI (TK-10 renal) of the same compound?
Answer: > 100 µM

Question: What about the TGI (BT-549 breast) of the same compound?
Answer: > 100 µM

Question: What about the TGI (A549 NSCLC) of the same compound?
Answer: > 100 µM

Question: What about the TGI (HT29 colon) of the same compound?
Answer: > 100 µM

Question: And the TGI (M14 melanoma)?
Answer: > 100 µM

Question: And the TGI (U251 CNS)?
Answer: 0.364 µM

Question: And the TGI (SW-620 colon)?
Answer: > 46.1 µM

Question: What about the TGI (UACC-62 melanoma) of the same compound?
Answer: > 72.4 µM

Question: And the TGI (MDA-MB-231 breast)?
Answer: > 100 µM

Question: What about the TGI (MCF7 breast) of the same compound?
Answer: > 100 µM

Question: And the TGI (NCI-H23 lung)?
Answer: > 53.8 µM
